These results are taken from ChEMBL document CHEMBL2046288, “Cristatumins A-D, new indole alkaloids from the marine-derived endophytic fungus Eurotium cristatum EN-220” (2012).

Common to all, as to format: functional
The test system of assay [1] is Staphylococcus aureus. Description: Antibacterial activity against Staphylococcus aureus assessed as inhibition zone at 100 ug/disc by well diffusion method. The conditions noted are these: read-out: IZ. For orientation: Agar diffusion results depend on both activity and mobility in agar.
The next assay relates to Escherichia coli. Put plainly: Antibacterial activity against Escherichia coli by well diffusion method.
For assay [2], the system named is Staphylococcus aureus. Put plainly: Antibacterial activity against Staphylococcus aureus by well diffusion method.
For a further assay, the system named is Artemia salina. Put plainly: Insecticidal activity against Artemia salina. The conditions noted are these: read-out: LD50 (the source's name).

In brackets after ≈: the same amount, converted by molar mass.

Consider `C=CC(C)(C)c1[nH]c2c(CC=C(C)C)cc(CC=C(C)C)cc2c1C[C@@H]1NC(=O)[C@H](C)NC1=O` [ECHINULIN], for which, in the assay with Staphylococcus aureus [1], the zone of inhibition at 100 µg/disc turned out to be 8 mm.

Regarding `C=CC(C)(C)c1[nH]c2ccccc2c1/C=C(\NC(=O)C(N)=O)C(=O)OC` [CRISTATUMIN D], in the assay with Staphylococcus aureus [1], the zone of inhibition at 100 µg/disc is 8 mm.

What is called MIC is the smallest concentration in the dilution series that meets the test's criterion for growth inhibition. A higher MIC goes with weaker potency. `C=CC(C)(C)c1[nH]c2ccccc2c1/C=C1\NC(=O)[C@H](CO)NC1=O` [CRISTATUMIN A] yielded an MIC with Escherichia coli of 64 µg/mL (≈ 189 µM).

As to `O=C(N[C@H](CO)[C@H](O)c1ccc([N+](=O)[O-])cc1)C(Cl)Cl` [CHLORAMPHENICOL], the MIC in the assay on Escherichia coli and in the assay on Staphylococcus aureus [2] was 4 µg/mL (≈ 12.4 µM) each time.

As to `C=CC(C)(C)c1[nH]c2c(CC=C(C)C)cccc2c1/C=C1\NC(=O)[C@H](C)NC1=O` [VARIECOLORIN G], the LC50 with Artemia salina was 42.6 µg/mL (≈ 109 µM).

In the assay on Staphylococcus aureus [2], `C=CC(C)(C)c1[nH]c2ccc(CC=C(C)C)cc2c1C[C@@H]1NC(=O)[C@H](C)NC1=O` [TARDIOXOPIPERAZINE A] showed an MIC of 8 µg/mL (≈ 20.3 µM).

As to `C=CC(C)(C)c1[nH]c2c(CC=C(C)C)cc(CC=C(C)C)cc2c1C[C@@H]1NC(=O)[C@H](CO)NC1=O` [CRISTATUMIN B], in the assay on Artemia salina, the LC50 came out at 74.4 µg/mL (≈ 156 µM).

In the case of `C=CC(C)(C)c1[nH]c2ccc(CC=C(C)C)cc2c1/C=C1\NC(=O)[C@H](C)NC1=O` [ISOECHINULIN A], the LC50 in the assay on Artemia salina came to 16.9 µg/mL (≈ 43.2 µM).
